This is an account of results in US10058622B2, “PH-sensitive peptides and their nanoparticles for drug delivery” (THE TRUSTEES OF THE UNIVERSITY OF PENNSYLVANIA, priority 2013, dated 2018).

Where two headings read alike, the source gives them in different places.

Data set [1] in a line: Solubility of peptides at pH 7.4 and 6.5 (Example 13). It counts as physicochemical. An excerpt:
Five pH sensitive peptides of the following sequences, […] (SEQ ID NO: 17), […] (SEQ ID NO: 18), […] (SEQ ID NO: 19), […] (SEQ ID NO: 20) and […] (SEQ ID NO: 8) were similarly synthesized by the method described in Example (1). Peptides […] (SEQ ID NO: 17) and […] (SEQ ID NO: 18) were soluble at both pH 7.4 and 6.5. Peptides […] (SEQ ID NO: 19) and […] (SEQ ID NO: 20) were insoluble at both pH 7.4 and 6.5, with […] (SEQ ID NO: 20) forming nanoparticles of about 80 nm. Peptide […] (SEQ ID NO: 8) was insoluble above about pH 6.7 forming nanoparticles of about 50 nm and soluble below about pH6.7; i.e., it undergoes a pH-induced transition at about pH6.7. Therefore, the pH ranges of the hydrophobic/hydrophilic transition and the corresponding soluble/insoluble transition of peptides and their nanoparticles may be adjusted by changing one or more features of the peptide, e.g., sequence and length, and the hydrophobic block and the functional block to which the peptide is conjugated.

The nature of data set [2]: Solubility of hydrophobic drugs in water versus concentration in nanoparticles. Format: physicochemical. The following applies: nanoparticles of Example 9 / Example 10.
For data set [3] the following is noted: cited from earlier work.
For data set [4], the system named is HCC1806 tumor (triple-negative breast cancer). Description: Tumor growth in HCC1806 tumor inoculated mice. The following applies: 100 mg LND/kg in tris-glycine buffer, intraperitoneal injection. Format: in vivo.
Data set [5] is described as follows: Solubility of peptide nanoparticles as a function of pH (Example 1, FIG. 1B). As to conditions: phosphate buffer solution. It counts as physicochemical. An excerpt: A pH sensitive peptide (Ac-[…]-NH2) (SEQ ID NO: 9) was synthesized by the solid phase method. Amino acids blocked by the fluorinylmethyloxycarbonyl (FMOC) group were utilized to couple to a Rink amide resin. Piperideine, N-methylmorpholine (NMM), and hexafluorophosphate (HBTU) in dimethylformamide were used to remove the FMOC group and activate amino acids. The peptide was acetylated with acetic anhydride at the N-terminus and cleaved with trifluoroacetic acid/triisopropylsilane/water (95%/2.5%/2.5%). […] Such peptide spontaneously forms nanoparticles at pH 7.4. The solubility of nanoparticles was measured as a function of pH. […] Therefore, there is a sharp transition spanning over a pH interval of only 0.1. The increasing solubility at lower pH is believed to be due to the increasing protonation of the histidine group.

The nature of data set [6]: Cytotoxicity by lactic dehydrogenase (LDH) assay. It counts as cell-based, human. As to conditions: human, SKOV3 cells, read-out: cell viability. The protocol:
(§1) FIGS. 4A and 4B show lack of cytotoxicity of a pH sensitive peptide solution for SKOV3 cells.
(§2) Cytotoxicity, i.e., the effect of peptide on tumor cell viability, was determined using lactic dehydrogenase (LDH) assay. Cells (SKOV3 cells, a human carcinogenic cell line from ovarian cancer) were plated in 96-well plates (10,000 per well for SKOV3) and allowed to adhere overnight at 37° C. in a humidified atmosphere of 5% CO2. […] The medium was next removed, the LDH assay lysis solution was added, and the wells were kept at 37° C. for another 45 minutes. Finally, the LDH assay mixture was added and the wells were held at room temperature for still another 20-30 minutes before the absorbance was spectrophotometrically measured at a wavelength of 490 nm on a SpectraMax (Molecular Devices). […] This was confirmed by the spectrophotometric intensity of dead cells, shown in the lower panel, which was near zero, meaning it is indistinguishable from that of the control. Therefore, the peptide itself is non-toxic and biocompatible.

Data set [7] relates to SKOV3 cells. Description: Cytotoxicity by lactic dehydrogenase (LDH) assay. It counts as cell-based, human. As to conditions: control set as zero. On the procedure:
as §1, §2

What is called viability is a per cent measure of how many cells are alive, often set against a control.

For the compound Ac-GHFFHGFFFH-NH2, the solubility of peptide result in data set [1] (pH 6.5) and in data set [1] (pH 7.4) was “insoluble” each time.
For the compound `CC(=O)O[C@H]1C(=O)[C@@]2(C)[C@H]([C@H](OC(=O)c3ccccc3)[C@]3(O)C[C@H](OC(=O)[C@H](O)[C@@H](NC(=O)c4ccccc4)c4ccccc4)C(C)=C1C3(C)C)[C@]1(OC(C)=O)CO[C@@H]1C[C@@H]2O` [paclitaxel], in data set [2], the “concentration of drug in pH-sensitive peptide nanoparticle preparation” value worked out at 1 mg/ml. In data set [3], the solubility in water result is “about 0.3 μg/ml”.
For Ac-GHFFHGHFFH-NH2, the solubility of peptide entry in data set [1] (pH 6.5) and in data set [1] (pH 7.4) was “soluble” each time.
On to `O=C(O)c1nn(Cc2ccc(Cl)cc2Cl)c2ccccc12` [LND, lonidamine], for which the “duration of tumor growth delay effect compared to control” value in data set [4] is recorded as “about 10 days”. Moreover, the “concentration of drug in pH-sensitive peptide nanoparticle preparation” value in data set [2] was 1 mg/ml. Besides, the solubility in water result in data set [3] was “about 17 μg/ml”.
Turning to Ac-GFFFHGFFFH-NH2, the solubility of peptide result in data set [1] (pH 6.5) and in data set [1] (pH 7.4) was “insoluble” in each case.
Take Ac-KGGHFFHGHFFHGK-NH2: the solubility of peptide entry in data set [1] (pH 6.5) and in data set [1] (pH 7.4) was “soluble” each time.
For Ac-HFFHGHFFHGHFFHGKK-NH2, the “solubility of peptide and nanoparticle” value is given as “completely insoluble” in data set [5] (above pH 7.2), “mostly insoluble” in data set [5] (at pH 7.0), “completely soluble” in data set [5] (below pH 6.7) and “mostly soluble” in data set [5] (below pH 6.9). Further, the “pH interval spanned by the sharp solubility transition” value in data set [5] was found to be 0.1. Further, the “pH of sudden fall indicating dissolution of peptide construct from nanoparticle” value in data set [5] (FIG. 1B) is listed as 6.9. Further, the viability at 3 h in data set [6] (pH 6.8, 3 hours with peptide then 24 hours) was approximately 100%; in data set [6] (pH 7.4, 3 hours with peptide then 24 hours), approximately 100%. Further, the “spectrophotometric intensity of dead cells (LDH release)” value in data set [7] was “near zero”.
